Laboratory results as given in patent publication US20150018369A1 (priority 2012, published 2015).

What was measured:
CB1 = experiment: [3H]-CP55940 binding competition at CB1; set-up: species or system human; conditions: FIG. 2c
Experimental: Fragments were amplified from total RNA of cell lines by reverse transcriptase-polymerase chain reaction (RT-PCR). Sequence was confirmed and the fragment was cloned into the EcoRI site of the pIRES2-eGFP-express vector. Cells were grown to approximately 80% confluence in 10 cm cell culture dishes, transfected with the cDNA pIRES-eGFP-vector containing the human CB1 or CB2 receptor using LipofectAMINE™ 2000 reagent in the serum-free media Opti-MEM 1 according to the manufacturer's description. Cells were subject to FACS sorting 48 his after transfection and single cell sorted based on dsRed expression into 96-well plates. Of the dsRed expressing positive clones, 3 were validated for CB1 and CB2 protein expression by radioligand binding analysis (methods discussed below).
Cells were grown to 90% confluence, rinsed twice with 1× PBS and stored at −80° C. until further use. To prepare crude cellular membrane fractions, dishes were removed from −80° C. and thawed at room temperature for 5 min. Once thawed, cells were lysed with ice-cold homogenization buffer (50 mM Tris, 1 mM EDTA, 3 mM MgCl2) and gently scraped from the dish. Total cell lysates from 3-5 dishes were collected on ice in 3 ml of ice-cold homogenization buffer Cells were homogenized at 6,500 rpm (PRO Scientific, Oxford, Conn.) twice for 10 sec and centrifuged at 11,500 rpm for 20 min at 4° C. […]

AI receptors [1] = experiment: GTPγS binding in HEK293 cell homogenates; format: biochemical, human
Text: (§1) When comparing the overall amino acid sequence of GPR124 to that of CB1 and CB2 receptors no significant homology was found. However, when focusing the comparison to the amino acid sequence encoding for the third transmembrane domains of GPR124 and CB2 receptors, 84% homology was found (FIG. 5a). […] Therefore, it is likely that ST-1, ST-11, and other AI compounds interact directly with the third transmembrane domain of GPR124. To determine the signaling mechanism of AI receptors, effect of ST-11 in HEX293 cells, which express GPR124 endogenously and commonly used to study GPCR pharmacology and signaling pathway, was tested.

AI receptors [2] = experiment: cAMP production in HEK293 cells; format: cell-based, human
Text: as §1

DBT cells = experiment: Killing of DBT mouse astrocytoma cells; format: cell-based; conditions: FIG. 10c
Text: Cannabinoid receptors are known to regulate cell migration.

[3] = tested on: mouse microglia in primary culture; experiment: cAMP production in mouse microglia; format: cell-based
[4] = tested on: mouse microglia in primary culture; experiment: NO production in mouse microglia; format: cell-based
DBT tumors = DBT tumors implanted in BalbC mice; format: in vivo, mouse; conditions: treated daily over 2 weeks
CB2 = CB2 (Homo sapiens, UniProt P34972); experiment: HA-tagged receptor internalization, CB2; format: cell-based; set-up: HA; expressed in transfected cells; conditions: FIG. 2b
Text: FIGS. 2d and 2e illustrate the co-docking of CP55940 and either WIN55212-2 (d) or ST-11 (e) in hCB1 receptors.

Sequence of CB2 (P34972 whole entry): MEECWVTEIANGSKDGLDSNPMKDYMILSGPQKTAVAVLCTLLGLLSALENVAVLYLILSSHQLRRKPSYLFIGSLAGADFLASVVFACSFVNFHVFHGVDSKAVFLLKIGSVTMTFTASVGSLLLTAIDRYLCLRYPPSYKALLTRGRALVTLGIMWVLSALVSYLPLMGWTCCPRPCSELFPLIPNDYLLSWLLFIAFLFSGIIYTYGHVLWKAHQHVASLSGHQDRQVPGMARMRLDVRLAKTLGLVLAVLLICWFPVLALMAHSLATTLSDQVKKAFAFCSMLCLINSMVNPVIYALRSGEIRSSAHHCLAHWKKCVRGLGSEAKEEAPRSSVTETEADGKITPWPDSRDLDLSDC

CCn1c(C)c(C(=O)c2ccc(C)c3ccccc23)c2ccccc21 [ST-11]
competition for [3H]-CP55940 binding at CB1 (CB1): but not for [^3H]-CP55940 binding | GTPγS binding (AI receptors [1]): activation of GTP[…]S binding | cAMP production (AI receptors [2]): inhibition of cAMP production | killing of DBT cells (DBT cells): kills DBT cells | cAMP production stimulated by Isoproterenol [3]: inhibits cAMP production | NO production [4]: does not stimulate or inhibit | number of lymphocytes in DBT tumors (DBT tumors): increases the number of lymphocytes | number of microglia in DBT tumors (DBT tumors): increases | cross-activation of human CB2 receptors (receptor internalization) (CB2): engage CB2 receptors
